Experimental data taken from article PMC10535535, “Imidazopyridine-Based Thiazole Derivatives as Potential Antidiabetic Agents: Synthesis, In Vitro Bioactivity, and In Silico Molecular Modeling Approach” (Pharmaceuticals, 2023).

These compounds were tested against α-glucosidase (assay: α-glucosidase inhibition assay (pNPG, spectrophotometric)). Settings: in vitro, pNPG substrate, 37 °C, triplicate; read-out: IC50 ± SEM.
Assay type: biochemical
Description: With slight modification to an earlier technique, the α-glucosidase inhibition profiles of the synthesized scaffolds were assessed spectrophotometrically. Amounts of 10 μL of the sample, 120 μL of 100 mM potassium phosphate buffer, and […] of a 0.5 U/mL α-glucosidase solution (0.3 mM, in buffer) were combined for each chemical. […] Each combination was incubated at 37 °C for a separate period of 15 min. […] Once more, the mixture was incubated for 15 min at 37 °C. At that point, 80 μL of a 0.2 M sodium carbonate solution was administered to terminate the process. The mixture that included no enzymes also functioned as a blank sample. At 405 nm, the absorbance was finally calculated. To accurately measure the background absorbance, the blank sample, which replaced the substrate with 50 μL of the buffer, was examined. […] Assuming that A represents the absorbance of the control without test samples and B represents the absorbance with test samples present, the percentage of enzyme inhibition was computed as (1 B/A) 100. […] 4.4. Assay protocol for α-glucosidase inhibition The α-glucosidase inhibition profiles of synthesized scaffolds were determined spectrophotometrically, with some modifications to an earlier method. For each chemical, 10 μL of the sample, 120 μL of 100 mM potassium phosphate buffer, and 20 μL of 0.5 U/mL alpha-glucosidase solution was mixed (0.3 mM, in buffer). […] At 37 °C, each mixture was incubated for a separate 15 minutes. The enzymatic reaction was initiated by adding 20 μL of the substrate 4-nitrophenyl- D-α-glucopyranoside (pNPG) (5 mM) to the solution. The mixture was once more incubated at 37 °C for 15 minutes. To stop the process at that point, 80μL of sodium carbonate solution were injected (0.2 M). Additionally, the mixture without any enzymes served as a blank sample. The absorbance was finally determined at 405 nm. The blank sample, in which the substrate was swapped out for 50 μL of the buffer, was analyzed to properly quantify the background absorbance. […] The percentage of enzyme inhibition was calculated as (1 B/A) 100, assuming that A represents the absorbance of the control without test samples and B represents the absorbance with test samples present. The analyses were carried out in triplicate, and the results were presented as mean SD. 4.5. […] On the Discovery Studio R2 64-bit Client system, interactive molecular structure visualization and analysis were done. From the RCSB Protein Data Bank, the three-dimensional (3D) structure of α-glucosidase was retrieved (PDB). The chemical structures of the ligands were obtained from the Pub Chem compound database. Using Open Babel, the PDB files were converted into PDBQT files. For docking analysis, the PDB coordinates of the ligands and targets were optimized. Geometry optimization is carried out using Gaussian 09 (adding missing residues). […] Further details were summarized in our previous articles.
An IC50 of 6.85 ± 2.18 µM was found for O=[N+]([O-])c1cc(-c2csc(N/N=C\c3cnc4ccc(F)cn34)n2)cc(C(F)(F)F)c1 [4a] in this work.
An IC50 of 13.6 ± 1.67 µM was found for O=[N+]([O-])c1cc(Cl)ccc1-c1csc(N/N=C\c2cnc3ccc(F)cn23)n1 [4b] in this work.
An IC50 of 63.5 ± 5.28 µM was found for Fc1ccc2ncc(/C=N\Nc3nc(-c4ccc(-c5ccccc5)cc4)cs3)n2c1 [4c] in this work.
An IC50 of 32.1 ± 4.29 µM was found for CN(C)c1ccc(-c2csc(N/N=C\c3cnc4ccc(F)cn34)n2)cc1 [4d] in this work.
An IC50 of 44.9 ± 5.27 µM was found for COc1cc(C)ccc1-c1csc(N/N=C\c2cnc3ccc(F)cn23)n1 [4e] in this work.
An IC50 of 51 ± 5.8 µM was found for Cc1ccc(-c2csc(N/N=C\c3cnc4ccc(F)cn34)n2)c(C)c1 [4f] in this work.
An IC50 of 5.57 ± 3.45 µM was found for O=[N+]([O-])c1ccc(C(F)(F)F)c(-c2csc(N/N=C\c3cnc4ccc(F)cn34)n2)c1 [4g] in this work.
An IC50 of 43.2 ± 6.16 µM was found for Cc1ccccc1-c1csc(N/N=C\c2cnc3ccc(F)cn23)n1 [4h] in this work.
An IC50 of 34.9 ± 5.84 µM was found for COc1cc(O)ccc1-c1csc(N/N=C\c2cnc3ccc(F)cn23)n1 [4i] in this work.
An IC50 of 22.6 ± 3.55 µM was found for Cc1ccc(-c2csc(N/N=C\c3cnc4ccc(F)cn34)n2)c([N+](=O)[O-])c1 [4j] in this work.
An IC50 of 34.7 ± 5.23 µM was found for Cc1cc(Cl)ccc1-c1csc(N/N=C\c2cnc3ccc(F)cn23)n1 [4k] in this work.
An IC50 of 19.3 ± 2.58 µM was found for Fc1ccc2ncc(/C=N\Nc3nc(-c4ccc(Cl)cc4Cl)cs3)n2c1 [4l] in this work.
An IC50 of 56.3 ± 5.94 µM was found for COc1ccc(-c2csc(N/N=C\c3cnc4ccc(F)cn34)n2)c(OC)c1 [4m] in this work.
An IC50 of 61.4 ± 4.56 µM was found for Cc1ccc(-c2ccc(-c3csc(N/N=C\c4cnc5ccc(F)cn45)n3)cc2)cc1 [4n] in this work.
An IC50 of 7.16 ± 1.4 µM was found for O=[N+]([O-])c1ccc(O)c(-c2csc(N/N=C\c3cnc4ccc(F)cn34)n2)c1 [4o, (Z)-2-(2-(2-((6-fluoroimidazo[1,2-a]pyridin-3-yl)methylene)hydrazineyl)thiazol-4-yl)-4-nitrophenol] in this work.
An IC50 of 10.5 ± 2.2 µM was found for Oc1ccc(-c2csc(N/N=C\c3cnc4ccc(F)cn34)n2)c(O)c1 [4p] in this work.

Same assay, conditions: unit not given; in µM
An IC50 of 34.91 ± 5.84 was found for COc1cc(O)ccc1-c1csc(N/N=C\c2cnc3ccc(F)cn23)n1 [4i] in this work.

Same assay, conditions: versus acarbose
For Cc1ccc(-c2csc(N/N=C\c3cnc4ccc(F)cn34)n2)c([N+](=O)[O-])c1 [4j], the “potency as compared to the standard drug” value was “two-fold more potency”.
With Fc1ccc2ncc(/C=N\Nc3nc(-c4ccc(Cl)cc4Cl)cs3)n2c1 [4l] the “potency as compared to the standard drug” value was “two-fold more potency”.
